Here are results for one compound from patent US20180207294A1, “NON-ALCOHOLIC FATTY LIVER REGULATING FACTOR 14-3-3 PROTEIN” (Korea University Research and Business Foundation, priority 2015, published 2018).

The subject of assay [1] is primary mouse hepatocytes. The assay can be described thus: Oil Red-O lipid accumulation, primary mouse hepatocytes. As to conditions: concentration-dependent treatment of oleic acid, FIG. 9A. Format: cell-based. Here is the method:
(§1) HepG2 cells and primary mouse hepatocytes were separately seeded in a 6-well plate at a density of 4×10^5 cells per each well, and then transfected with GFP-14-3-3β DNA (1 μg) or GFP-14-3-3γ DNA (1 μg) and si-14-3-3β (10 μM, Santa Cruz) or si-14-3-3γ (10 μM, Santa Cruz) using an E-fection plus reagent (Lugen). A ratio of DNA to the E-fection plus reagent was 1:2, and this method was performed according to a manufacturer's manual. […] The stained cells were bleached with 1 ml of isopropanol and analyzed at a wavelength of 550 nm using a DU530 spectrophotometer (Beckman Instruments, Palo Alto, Calif.).

The test system of assay [2] is primary mouse hepatocytes. The assay can be described thus: mRNA expression (real-time PCR) after oleic acid treatment, primary mouse hepatocytes. It is filed as cell-based. The note with it: oleic acid 72 hours. The source says: (§2) It is known that, in the liver of obese mice, the expression and activity of PPARγ2 are increased, and the expression of a target gene thereof is increased. To form such an obese environment in an in vitro experiment, mRNA expression amounts of PPARγ2, and 14-3-3β and 14-3-3γ were checked through treatment with oleic acid (OA), which is a type of fatty acid.
(§3) HepG2 cells and primary mouse hepatocytes were separately seeded in a 6-well plate at a density of 4x10^5 cells per each well, and then treated with 200 μM of oleic acid (OA) for 72 hours. For mRNA extraction, the corresponding cells were lysed with 1 ml/well of TRIzol (Invitrogen), 200 μl of chloroform was added thereto and mixed well, the resultant cells were maintained at room temperature for 5 minutes and then centrifuged at 12,000×g and 4° C. for 15 minutes, the obtained supernatant was mixed with 500 μl of isopropanol and then put on ice for 10 minutes, the resulting supernatant was centrifuged at 12,000×g and 4° C. for 15 minutes to remove a supernatant, and then pellets were dissolved with tertiary distilled water treated with diethyl pyrocarbonate (DEPC). 2 μg of mRNA was synthesized into cDNA using a Superscript First Strand cDNA Synthesis Kit (Bioneer, Daejeon, South Korea) and the synthesized cDNA as a template was amplified through polymerase chain reaction (PCR) using primers specific to PPARγ2, 14-3-3β, 14-3-3γ, SREBP-1c, SCD-1, ACC, FABP, FAT/CD36, and (β-actin of humans, and was amplified through real-time PCR using primers specific to PPARγ2, 14-3-3β, 14-3-3γ, SREBP-1c, FAT/CD36, and GAPDH of mice. β-actin and GAPDH were used as controls to see whether mRNAs of the respective cells were compared in the same amount.

In assay [3] the test system is primary mouse hepatocytes. In words: Triglyceride colorimetric assay, primary mouse hepatocytes. Format: cell-based. As to conditions: primary mouse hepatocytes treated with oleic acid (200 μM, 72 hours); FIG. 10A. As for the experimental part:
A triglyceride (neutral fat) is a type of fatty acid and is used as an index of a fat content. A biochemical lipid test was carried out by measuring an amount of triglycerides. HepG2 cells and primary mouse hepatocytes were separately seeded in a 6-well plate at a density of 4×10^5 cells per each well, and then transfected with GFP-14-3-3β DNA (1 μg) or GFP-14-3-3γ DNA (1 μg) and si-14-3-3β (10 μM, Santa Cruz) or si-14-3-3γ (10 μM, Santa Cruz) using an E-fection plus reagent (Lugen). A ratio of DNA to the E-fection plus reagent was 1:2, and this method was performed according to a manufacturer's manual. After transfection, the cells were treated with 200 μM of oleic acid (OA) for 72 hours, and the amount of triglycerides was measured using a triglyceride colorimetric assay kit (Cayman Chemical). The corresponding cells were washed with ice-cold PBS and then scraped using a standard diluent assay reagent, the scrapping process was repeated using a sonicator 20 times to lyse the cells, and the lysed cells were reacted with an enzyme buffer solution for 15 minutes, followed by measurement using an ELISA reader (Bio-Rad Laboratories, Inc) at a wavelength of 550 nm.

For a further assay, the target named is T1, PPARγ2 and 14-3-3β (Homo sapiens, UniProt P37231).
T1 construct: expressed in transfected cells; host or cells: HEK-293T
T1 sequence (P37231 1-505): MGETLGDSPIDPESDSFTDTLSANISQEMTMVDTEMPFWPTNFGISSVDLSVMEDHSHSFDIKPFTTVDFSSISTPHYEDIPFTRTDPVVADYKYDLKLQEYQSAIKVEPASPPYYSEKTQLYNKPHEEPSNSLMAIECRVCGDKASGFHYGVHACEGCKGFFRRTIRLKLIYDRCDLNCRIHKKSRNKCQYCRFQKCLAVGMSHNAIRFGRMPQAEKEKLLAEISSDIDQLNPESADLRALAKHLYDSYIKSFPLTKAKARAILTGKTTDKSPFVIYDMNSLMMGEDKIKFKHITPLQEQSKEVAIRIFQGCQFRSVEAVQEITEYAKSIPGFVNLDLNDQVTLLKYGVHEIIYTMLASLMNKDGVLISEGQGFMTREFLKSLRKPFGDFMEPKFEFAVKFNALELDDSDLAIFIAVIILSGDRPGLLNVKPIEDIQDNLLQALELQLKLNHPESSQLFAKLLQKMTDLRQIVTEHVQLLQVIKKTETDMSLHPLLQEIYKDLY
T1 sequence (P31946 1-246 partner): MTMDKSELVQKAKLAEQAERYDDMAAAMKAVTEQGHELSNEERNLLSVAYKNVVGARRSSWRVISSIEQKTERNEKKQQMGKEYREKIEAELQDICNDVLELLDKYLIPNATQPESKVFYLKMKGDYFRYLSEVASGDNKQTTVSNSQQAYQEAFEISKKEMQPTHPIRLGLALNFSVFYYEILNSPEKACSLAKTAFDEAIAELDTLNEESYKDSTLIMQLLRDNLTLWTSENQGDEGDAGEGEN
In words: GST-pull down assay, PPARγ2 / 14-3-3β binding with oleic acid treatment (HEK-293T). As to conditions: 200 μM oleic acid 72 hours; FIG. 8A. Here is the method:
(§4) HEK-293T cells were seeded in a 100 mm plate at a density of 2×10^6 cells per each well, and then transfected with mGST-PPARγ2DNA (4 μg) and HA-14-3-3β DNA (4 μg) or HA-14-3-3γ DNA (4 μg) using an E-fection plus reagent (Lugen). A ratio of DNA to the E-fection plus reagent was 1:2, and this method was performed according to a manufacturer's manual. After transfection, the cells were treated with 200 μM of oleic acid (OA) for 72 hours, washed with ice-cold PBS, and lysed with 500 μl/well of a lysis buffer (150 mM NaCl, 1 mM EDTA, 1% Nonidet P-40, 5% glycerol, 25 mM tris-HCl, pH 7.5, protease inhibitor added), the lysed cells were centrifuged at 10,000×g and 4° C. for 10 minutes to extract proteins, 1,000 μg of the proteins was reacted with 20 μl of glutathione Sepharose 4B beads (GE Healthcare, Buckinghamshire, UK) for 6 hours, washing of the beads with 1 ml of ice-cold PBS was repeated 5 times, the resulting beads were boiled at 100° C. for 10 minutes, and the proteins were separated on a 10% SDS-PAGE gel and identified using each of the antibodies (GST, HA: Santa Cruz) by western blotting, and all antibodies were used in a ratio of 1:3000.

The subject of assay [4] is HepG2 cells. In words: Oil Red-O lipid accumulation, HepG2 cells. As to conditions: concentration-dependent treatment of oleic acid, FIG. 9A. It is filed as cell-based. Here is the method: as §1
The test system of assay [5] is HepG2 cells. In words: mRNA expression (PCR) after oleic acid treatment, HepG2 cells. Format: cell-based, human. As to conditions: oleic acid 72 hours.
Source text: as §2, §3

In a further assay the target is T2, PPARγ2 and 14-3-3γ (Homo sapiens, UniProt P37231).
T2 construct: expressed in transfected cells; host or cells: HEK-293T
T2 sequence (P37231 1-505): T1 sequence (P37231 1-505)
In words: GST-pull down assay, PPARγ2 / 14-3-3γ binding with oleic acid treatment (HEK-293T). As to conditions: 200 μM oleic acid 72 hours; FIG. 8B. As for the experimental part:
as §4

As for `CCCCCCCC/C=C\CCCCCCCC(=O)O` [oleic acid], the “lipid accumulation (Oil Red-O)” value (in assay [1]; with HepG2 cells [4]) was “lipid accumulation was increased” each time. Moreover, the “mRNA expression amount of 14-3-3β” value (in assay [2] (FIG. 6B); with HepG2 cells [5] (FIG. 6A)) was “no changes” in each case. Further, the “mRNA expression amount of 14-3-3γ” value (in assay [2] (FIG. 6B); with HepG2 cells [5] (FIG. 6A)) was “no changes” in each case. The “mRNA expression of PPARγ2” value (in assay [2] (FIG. 6B); in the assay with HepG2 cells [5] (FIG. 6A)) was “increased in an oleic acid concentration-dependent manner” throughout. Moreover, the “mRNA expression of lipid metabolism-associated genes (PPARγ2 target genes)” value (in assay [2] (FIG. 6D); in the assay with HepG2 cells [5] (FIG. 6C)) was “also increased in an oleic acid concentration-dependent manner” throughout. Also, the triglyceride accumulation entry in assay [3] was “triglyceride accumulation was increased”. Also, the “binding between PPARγ2 and 14-3-3β” value on PPARγ2 and 14-3-3β is “increased”. At PPARγ2 and 14-3-3γ, the “binding between PPARγ2 and 14-3-3γ” value is listed as “reduced”.
